“Also recorded” adds a separate entry of the source. Peptide text beside a SMILES is read from it. * marks the point of attachment. 5FAM = O=C1OC2(c3ccc(O)cc3Oc3cc(O)ccc32)c2ccc(C(=O)*)cc21; FAM = carboxyfluorescein
Key:
Format in all cases: cell-based
HeLa cells [1] = test: Flow cytometry (FACS) quantification of cellular uptake of FAM labeled peptides; settings: FAM labeled peptide, 10 uM, 37° C., 1 hour, average of a number of experiments
Description: To determine the efficiency of peptide loading, HeLa cells (ATCC number CCL-2TM (Manassas, Va.) grown in DMEM medium with stabilized glutamine supplemented with 10% fetal calf serum (Biological Industries, Beit Haemek, Israel), were seeded at a density of 20,000 per well in 96 U shape-well plates (Nunc A/S, Roskilde, Denmark) in serum containing DMEM (D-Mem W/O Na Pyr, product number 41965039).
After 24 hours, the cells were washed twice with 300 μL serum free OptiMEM (Reduced Serum Media, buffered with HEPES and sodium bicarbonate and supplemented with hypoxanthine, thymidine, sodium pyruvate, L-glutamine, trace elements and growth factors) medium and incubated in 50 μL serum free OptiMEM, containing peptides in the appropriate concentrations for 1 hour at 37° C. Each condition was tested in triplicates. After incubation, cells were washed with serum free medium, detached by trypsinization for 5 minutes, suspended in ice-cold PBS (phosphate buffered saline) containing 0.1% (w/v) BSA (bovine serum albumin), and measured immediately by flow cytometry (BD FACS Calibur System, Becton Dickinson, Heidelberg, Germany). The fluorescence of approximately 10,000 vital cells was acquired and gated based on sideward and forward scatter. Peptides used as positive controls were Tat(47-57) (SEQ ID NO:19; Jain M, et al., Cancer Res. 2005 Sep. 1; 65(17):7840-6), 9R (SEQ ID NO:21; Mueller J, et al., Bioconjug Chem. 2008 December; 19(12):2363-74) and penetratin (SEQ ID NO:20; Mueller J, et al., Bioconjug Chem. 2008 December; 19(12):2363-74). Negative control peptides N2 (SEQ ID NO:22) and N5 (SEQ ID NO:23) were designed according to Handbook [Cell-Penetrating Peptides, Second Edition, Edited by Ülo Langel, CRC Press 2007, Print ISBN: 978-0-8493-5090-0] and [US Patent Application 20080234183].

HeLa cells [2] = test: Confocal microscopy of peptide membrane penetration and cellular distribution; settings: 5 uM, 37° C.
Description: To determine qualitative validation of peptide membrane penetration, HeLa cells from 5 ml of confluent T75 flask were seed in 12 well plate at 10×10^4 cells/mL in 0.5 ml DMEM supplied with 10% Fetal Calf Serum. […] DiD (DiD-[1,1′-Dioctadecyl-3,3,3′,3′-tetramethylindodicarbocyanine iodide] Lipophilic membrane tracer) (5 ug/ml) was added to each well and incubated for 5 min at 4° C., washed twice with cold PBS and fixed with 3.7% PFA 20′ RT. Cells were rinsed with PBS and mounted on slides for confocal microscopy analysis.

NRK cell line = test: Internalization assay of CPP conjugated liposomes by confocal microscopy; settings: CPP conjugated to liposomes, 50 μl, 1 hour, 37° C.
Description: (§1) Internalization assay was performed in 24 well plates. A549 or NRK cells were seeded on cover slips in RPMI or DMEM medium respectively, supplemented with antibiotics, L-Glutamine and 10% fetal calf serum (Biological industries, Beit Haemek).
(§2) For membrane staining, cells were stained with CellTracker™ DilC18 (5)-DS solution (Invitrogen, Carlsbad, Calif., USA), diluted 1:5000 with PBS. For internalization experiments involve NPs Concanavalin A, Alexa fluor 647 conjugate (10 μg/ml) (C21421, Invitrogen,) was used to label cell membrane. For nuclei staining, cells were stained with Hoechst (1:10,000 in PBS) (33258, Sigma). Cells were exposed to CPPs only (10 μM) or CPP-liposome complex (50 μl from stock, according to preparation method) or liposome only (50 μl from the prepared liposomal stock solution) in medium without serum for a period of 1 hour at 37° C. in a humidified atmosphere with 5% CO2. Subsequently, the cells were washed twice using cold PBS, fixated with 4% Paraformaldehyde (PFA) and washed again with cold PBS. Membrane and nuclei staining were preformed after fixation. The cells were mounted by fluorescent mounting medium (Golden Bridge international, Mukilteo, Wash., USA) and fluorescent was measured using Andor Spinning disc confocal microscope and the Meta 510 Zeiss LSM confocal microscope. Laser beams at 405, 488, 561 and 650 nm were used for UV, FAM, Rhodamine, Concavaline A and CellTracker™, fluorophores excitation respectively. Serial optical sections of the cells were recorded for each treatment and the images were processed using Zeiss LSM Image browser software.

A549 cell line = test: as above; settings: CPP conjugated to liposomes, 50 μl, 1 hour, 37° C.
Description: as §1, §2

A549 cells = test: FACS binding analysis of CPP conjugated liposomes; settings: FAM-CPP conjugated to hyaluronan coated liposomes, 30 minutes on ice
Description: Liposome preparation was carried out as described in Peer D., at al., 2008, Science 319, 627-630, Briefly, liposomes (60% soy-pc, 20% DPPE 20% cholesterol mol/mol) were prepared at a concentration of 40 mg/ml (Soy PC-273 mg, DPPE-81.2 mg Cholesterol-145.4 mg in 10 ml of ethanol). After a complete dissolvent, the solution was evaporated in a rotary evaporator (BUCHI R-210). Following the evaporation the dry lipid film was hydrated in 10 ml of HEPES (PH 7.4) and the solution was shaken (2 hr 65° C.). The MLV were reduced to ULV with an average size of ˜150 nm (Zetasizer Nano ZS system) by passing them through an extruder (Lipex) using filtration membranes in a serially manner ([…]). Average zeta potential of the ULV was −3 mV (Zetasizer Nano ZS system).
Hyaluronan (HA) (700 KDa Lifecore) was dissolved in 0.2M MES buffer (PH 5.5) to a final concentration of 5 mg/ml. HA was activate with EDC and solfo-NHS at a molar ratio of 1:1:6. After 30 min of activation the liposomes were added and the pH was adjusted to 7.4. The solution was incubated at room temp (2 hr). The free HA was removed by 3 repeated ultracentrifugations. The resulting HA-ULV's were at an average of 175 nm in size.
CPPs S22 (SEQ ID NO: 1), S24 (SEQ ID NO: 2) and S8 (SEQ ID NO: 6) and Control CPPs; 9R with additional C-terminal Lysine, 9R-K (SEQ ID NO: 40) and N2 (SEQ ID NO: 22), were dissolved to a concentration of 1 mg/ml. HA-ULV's (250 μl of 40 mg/ml) were activated with 1 ml of 0.4M EDC and 1 ml of 0.4 mM solfo-NHS. After 30 min the activated liposomes were divided into 5 test tubes (250 μl per each tube) and a different CPP (50 μl) was added. After incubation at RT for 2 hr, the CPP-HA-ULVS were dialyzed over night with PBS buffer (0.5 L/3 buffer changeovers) to remove unbound CPP, using dialysis bags with a cutoff 3500 Da.
For binding analysis, 3.5×10^5 cells were trypsinized, spin down, re-suspended with FACS buffer (1% fetal bovine serum in 1×PBS), incubated for 30 minutes on ice with different CPPs (Conjugated to FAM fluorophore) and washed with 1 ml FACS buffer.

[3] = In vitro cytotoxicity by LDH (lactate dehydrogenase) analysis; settings: human
Description: In order to assess the in vitro cytotoxicity of the peptides, an LDH (lactate dehydrogenase) analysis was carried out, using LDH kit (Promega G1782), according to manufacturer instructions.
Briefly, HeLa cells from 5 ml of confluent T75 flask were seed in 96 well plate at 10×10^4 cells/mL in 0.1 ml DMEM supplied with 10% Fetal Calf Serum. After 24 hrs incubation with growth medium, wells were replaced with Serum Free growth medium for 24 hrs, and then cells were washed with OptiMEM and replaced with 0.1 ml peptide solution at 10 uM for 1 h at 37° C. 50 ul of supernatant were transferred to the new plate and detected according to Cyto Tox 96, Non Radioactive cytotoxicity assay, (LDH kit Promega G1782). Table 5 presents the results of in vitro cytotoxicity measurements by LDH for S22, S24, S36 and S40 peptides and two positive control peptides; Tat(47-57) and R9. LDH experiment was done with fluorescent labeled (5-FAM) peptides in concentration of […] and the % of cytotoxicity was measured by LDH levels.

Compound: CC[C@H](C)[C@H](NC(=O)[C@H](CCCNC(=N)N)NC(=O)[C@H](CCCNC(=N)N)NC(=O)[C@H](CS)NC(=O)[C@@H](NC(=O)[C@H](CCCCN)NC(=O)[C@H](CCCCN)NC(=O)c1ccc2c(c1)C(=O)OC21c2ccc(O)cc2Oc2cc(O)ccc21)[C@@H](C)O)C(=O)N[C@@H](CC(N)=O)C(=O)N[C@@H](Cc1ccc(O)cc1)C(=O)N[C@@H](CS)C(=O)N[C@@H](C)C(=O)N[C@@H](CC(C)C)C(=O)N[C@@H](CC(N)=O)C(=O)N[C@@H](CCCCN)C(N)=O [S22, KKTCRRINYCALNK] (5FAM-KKTCRRINYCALNK-NH2; N-terminus and C-terminus assumed)
- Geometric mean of FL1 intensity (HeLa cells [1]): 206.4275
- accumulation of FAM labeled peptide inside the cell (confocal images) (HeLa cells [2]): strong cell membrane penetration capability; also recorded: efficient cellular uptake and intracellular accumulation
- internalization into NRK cell line (confocal) (NRK cell line): weak internalization; also recorded: better penetration into NRK in a comparison with peptide only
- internalization into A549 cell line (confocal) (A549 cell line): significant internalization effect
- binding to A549 cells (FACS) (A549 cells): high binding levels
- cytotoxicity at 1 h, 10 µM [3]: 7%

Compound: KKLALYLLLAL ({FAM}-KKLALYLLLAL-NH2) [S67]
- Geometric mean of FL1 intensity (HeLa cells [1]): 27.9

Compound: KPSARMLLLKGFGK [S8]
- Geometric mean of FL1 intensity (HeLa cells [1]): 52.29
- internalization into NRK cell line (confocal) (NRK cell line): weak internalization
- binding to A549 cells (FACS) (A549 cells): lower binding effect

Compound: RRRRRRRRRK [9R-K, positive control, 9R with additional C-terminal Lysine, reference compound]
- binding to A549 cells (FACS) (A549 cells): high binding levels

Compound: VATIKSVSFYTRK [N2, negative control peptide, reference compound]
- internalization into A549 cell line (confocal) (A549 cell line): did not show internalization effect
- binding to A549 cells (FACS) (A549 cells): lower binding effect
